How the values were obtained:
[1] = Stability of cannabinoid compounds and Vitamin E components in Beverage 1 (AB White) by LCMSMS; format: physicochemical; details: AB White stored at 21-25° C.
[2] = Stability of cannabinoid entourage and Vitamin E components of the powder concentrate by LCMSMS; format: physicochemical; details: powder stored at 21-25° C.
Description: At each time period, 0.05 g of powder was dissolved in 10 ml-15 of ethanol, diluted to fall within the analytical range, and injected into the LCMSMS for analysis.

SMILES: CCCCCc1cc(O)c2c(c1)OC1(C)CCC3C1C2C3(C)C (stereo not drawn) [CBL, cannabicyclol]
- Stability of Plant-Derived Cannabinoid Compounds in AB White, 21-25° C. ([1]; 29 days): 0.552 µg/mL
- Stability of Plant-Derived Cannabinoid Compounds in AB White, 21-25° C. ([1]; 30 days): 0.543 µg/mL
- Stability of Plant-Derived Cannabinoid Compounds in AB White, 21-25° C. ([1]; 60 days): 0.544 µg/mL
- Stability of Plant-Derived Cannabinoid Compounds in AB White, 21-25° C. ([1]; 90 days): 0.541 µg/mL
- Stability of Plant-Derived Cannabinoid Compounds in AB White, 21-25° C. ([1]; 120 days): 0.516 µg/mL
- Stability of Plant-Derived Cannabinoid Compounds in AB White, 21-25° C. ([1]; 150 days): 0.517 µg/mL
- Stability of Plant-Derived Cannabinoid Compounds in AB White, 21-25° C. ([1]; 180 days): 0.527 µg/mL
- Stability of Plant-Derived Cannabinoid Compounds in AB White, 21-25° C. ([1]; 210 days): 0.514 µg/mL
- Stability of Plant-Derived Cannabinoid Compounds in AB White, 21-25° C. ([1]; 240 days): 0.515 µg/mL
- Stability of Plant-Derived Cannabinoid Compounds in AB White, 21-25° C. ([1]; 270 days): 0.535 µg/mL
- Stability of Plant-Derived Cannabinoid Compounds in AB White, 21-25° C. ([1]; 300 days): 0.532 µg/mL
- Stability of Plant-Derived Cannabinoid Compounds in AB White, 21-25° C. ([1]; 330 days): 0.526 µg/mL
- Stability of Plant-Derived Cannabinoid Compounds in AB White, 21-25° C. ([1]; 360 days): 0.526 µg/mL
- Stability of Plant-Derived Cannabinoid Compounds in AB White, 21-25° C. ([1]; 390 days): 0.518 µg/mL
- Stability of Plant-Derived Cannabinoid Compounds in AB White, 21-25° C. ([1]; 420 days): 0.523 µg/mL
- Stability of Plant-Derived Cannabinoid Compounds in AB White, 21-25° C. ([1]; 450 days): 0.521 µg/mL
- Stability of Plant-Derived Cannabinoid Compounds in AB White, 21-25° C. ([1]; 480 days): 0.510 µg/mL
- Stability of Plant-Derived Cannabinoid Compounds in AB White, 21-25° C. ([1]; 510 days): 0.503 µg/mL
- Stability of Plant-Derived Cannabinoid Compounds in AB White, 21-25° C. ([1]; 540 days): 0.510 µg/mL
- Stability of Plant-Derived Cannabinoid Compounds in AB White, 21-25° C. ([1]; 570 days): 0.505 µg/mL
- Stability of Plant-Derived Cannabinoid Compounds in Powder Concentrate ([2]; 0 days): 0.050 mg/g powder
- Stability of Plant-Derived Cannabinoid Compounds in Powder Concentrate ([2]; 1 days): 0.051 mg/g powder
- Stability of Plant-Derived Cannabinoid Compounds in Powder Concentrate ([2]; 2 days): 0.049 mg/g powder
- Stability of Plant-Derived Cannabinoid Compounds in Powder Concentrate ([2]; 3 days): 0.050 mg/g powder
- Stability of Plant-Derived Cannabinoid Compounds in Powder Concentrate ([2]; 5 days): 0.052 mg/g powder
- Stability of Plant-Derived Cannabinoid Compounds in Powder Concentrate ([2]; 8 days): 0.050 mg/g powder
- Stability of Plant-Derived Cannabinoid Compounds in Powder Concentrate ([2]; 9 days): 0.050 mg/g powder
- Stability of Plant-Derived Cannabinoid Compounds in Powder Concentrate ([2]; 10 days): 0.050 mg/g powder
- Stability of Plant-Derived Cannabinoid Compounds in Powder Concentrate ([2]; 11 days): 0.052 mg/g powder
- Stability of Plant-Derived Cannabinoid Compounds in Powder Concentrate ([2]; 12 days): 0.052 mg/g powder
- Stability of Plant-Derived Cannabinoid Compounds in Powder Concentrate ([2]; 15 days): 0.048 mg/g powder
- Stability of Plant-Derived Cannabinoid Compounds in Powder Concentrate ([2]; 16 days): 0.049 mg/g powder
- Stability of Plant-Derived Cannabinoid Compounds in Powder Concentrate ([2]; 17 days): 0.049 mg/g powder
- Stability of Plant-Derived Cannabinoid Compounds in Powder Concentrate ([2]; 18 days): 0.052 mg/g powder
- Stability of Plant-Derived Cannabinoid Compounds in Powder Concentrate ([2]; 19 days): 0.052 mg/g powder
- Stability of Plant-Derived Cannabinoid Compounds in Powder Concentrate ([2]; 22 days): 0.051 mg/g powder
- Stability of Plant-Derived Cannabinoid Compounds in Powder Concentrate ([2]; 23 days): 0.051 mg/g powder
- Stability of Plant-Derived Cannabinoid Compounds in Powder Concentrate ([2]; 24 days): 0.050 mg/g powder
- Stability of Plant-Derived Cannabinoid Compounds in Powder Concentrate ([2]; 25 days): 0.050 mg/g powder
- Stability of Plant-Derived Cannabinoid Compounds in Powder Concentrate ([2]; 26 days): 0.051 mg/g powder
- Stability of Plant-Derived Cannabinoid Compounds in Powder Concentrate ([2]; 29 days): 0.048 mg/g powder
- Stability of Plant-Derived Cannabinoid Compounds in Powder Concentrate ([2]; 30 days): 0.051 mg/g powder
- Stability of Plant-Derived Cannabinoid Compounds in Powder Concentrate ([2]; 60 days): 0.050 mg/g powder
- Stability of Plant-Derived Cannabinoid Compounds in Powder Concentrate ([2]; 90 days): 0.050 mg/g powder
- Stability of Plant-Derived Cannabinoid Compounds in Powder Concentrate ([2]; 120 days): 0.048 mg/g powder
- Stability of Plant-Derived Cannabinoid Compounds in Powder Concentrate ([2]; 150 days): 0.050 mg/g powder
- Stability of Plant-Derived Cannabinoid Compounds in Powder Concentrate ([2]; 180 days): 0.049 mg/g powder
- Stability of Plant-Derived Cannabinoid Compounds in Powder Concentrate ([2]; 210 days): 0.052 mg/g powder
- Stability of Plant-Derived Cannabinoid Compounds in Powder Concentrate ([2]; 240 days): 0.049 mg/g powder
- Stability of Plant-Derived Cannabinoid Compounds in Powder Concentrate ([2]; 270 days): 0.051 mg/g powder
- Stability of Plant-Derived Cannabinoid Compounds in Powder Concentrate ([2]; 300 days): 0.050 mg/g powder
- Stability of Plant-Derived Cannabinoid Compounds in Powder Concentrate ([2]; 330 days): 0.049 mg/g powder
- Stability of Plant-Derived Cannabinoid Compounds in Powder Concentrate ([2]; 360 days): 0.050 mg/g powder
- Stability of Plant-Derived Cannabinoid Compounds in Powder Concentrate ([2]; 390 days): 0.052 mg/g powder
- Stability of Plant-Derived Cannabinoid Compounds in Powder Concentrate ([2]; 420 days): 0.050 mg/g powder
- Stability of Plant-Derived Cannabinoid Compounds in Powder Concentrate ([2]; 450 days): 0.052 mg/g powder
- Stability of Plant-Derived Cannabinoid Compounds in Powder Concentrate ([2]; 480 days): 0.051 mg/g powder
- Stability of Plant-Derived Cannabinoid Compounds in Powder Concentrate ([2]; 510 days): 0.050 mg/g powder
- Stability of Plant-Derived Cannabinoid Compounds in Powder Concentrate ([2]; 540 days): 0.048 mg/g powder
- Stability of Plant-Derived Cannabinoid Compounds in Powder Concentrate ([2]; 570 days): 0.050 mg/g powder

Source: patent US20260130395A1, “Water Dispersible Botanical Compositions” (Aquila Black Limited, priority 2021, published 2026)
